Assay results: PubChem BioAssay (NCI)
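Briefly, cells in 96-well plates were exposed to five compound concentrations for 48 h, and endpoints were estimated by linear interpolation. GI50 is the concentration that inhibits growth by half. TGI: concentration producing complete growth inhibition.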

How the values were obtained:
Assay in all cases: NCI anticancer screen, dose series, 48 h
HCT-15 colon = system: HCT-15 colon
OVCAR-5 ovarian = system: OVCAR-5 ovarian
SN12C renal = system: SN12C renal
SK-MEL-2 melanoma = system: SK-MEL-2 melanoma
DU-145 prostate = system: DU-145 prostate
NCI-H460 lung = system: NCI-H460 lung
OVCAR-4 ovarian = system: OVCAR-4 ovarian
SK-MEL-5 melanoma = system: SK-MEL-5 melanoma
HCC-2998 colon = system: HCC-2998 colon
HL-60(TB) leukemia = system: HL-60(TB) leukemia

Structure (SMILES) | GI50 (HCT-15 colon) [µM] | TGI (HCT-15 colon) [µM] | GI50 (OVCAR-5 ovarian) [µM] | TGI (OVCAR-5 ovarian) [µM] | GI50 (SN12C renal) [µM] | TGI (SN12C renal) [µM] | GI50 (SK-MEL-2 melanoma) [µM] | TGI (SK-MEL-2 melanoma) [µM] | GI50 (DU-145 prostate) [µM] | TGI (DU-145 prostate) [µM] | GI50 (NCI-H460 lung) [µM] | TGI (NCI-H460 lung) [µM] | GI50 (OVCAR-4 ovarian) [µM] | TGI (OVCAR-4 ovarian) [µM] | GI50 (SK-MEL-5 melanoma) [µM] | TGI (SK-MEL-5 melanoma) [µM] | GI50 (HCC-2998 colon) [µM] | TGI (HCC-2998 colon) [µM] | GI50 (HL-60(TB) leukemia) [µM] | TGI (HL-60(TB) leukemia) [µM]
Cc1ccc2c(C(C[N+](=O)[O-])c3cccs3)c(-c3ccccc3)[nH]c2c1 (stereo not given) | 1.44 | 7.46 | 4.07 | 11.1 | 1.89 | 7.01 | 2.24 | 10.5 | 3.7 | 16.9 | 1.38 | 6.14 | 4.45 | 13.9 | 1.07 | 4.21 | 3.61 | 8.01 | 1.14 | 14.6
CN1CCN(CC#Cc2cccc(C(=O)c3cnn(-c4ccc(F)cc4)c3N)c2)CC1 | > 25 | > 25 | > 25 | > 25 | > 25 | > 25 | > 25 | > 25 | > 25 | > 25 | > 25 | > 25 | > 25 | > 25 | > 25 | > 25 | > 25 | > 25 | 24.6 | > 25
C[C@@H]1CC[C@@H]2[C@@H]1[C@H](OC(=O)/C=C/c1ccccc1)[C@]1(c3ccccc3)C[C@@H](OC(=O)CO)[C@@]2(C)O1 | 12.7 | 32.7 | 15.5 | 34.5 | 0.538 | 22.4 | 19.6 | 38.3 | 15.9 | 33.8 | 16.3 | 38.6 | 12.3 | 27.3 | 13.4 | 26.2 | 14.6 | 29 | 14.9 | 53.9
CC1(C)N=C(N)N=C(N)N1c1ccc(CCCCc2ccc(S(=O)(=O)F)cc2)cc1 | 3.16 | > 100 | 2.62 | > 100 | 1.2 | 17.7 | 4.91 | 21.8 | 0.833 | 28.2 | 0.153 | 13.3 | 8.23 | > 86.5 | 0.574 | 13.4 | 4.55 | 26.7 | 0.828 | 22.1
COc1ccc(C(=O)Nc2ncc(Cc3ccc(Cl)cc3)s2)cc1 | 0.044 | > 100 | 0.247 | > 100 | 0.0946 | > 100 | 0.532 | > 100 | 0.104 | > 100 | 0.0406 | > 100 | 2.7 | > 100 | 0.0419 | 2.83 | 0.166 | 12.7 | 0.0347 | –
COC(=O)C(=O)CC(=O)CCn1ncc(Cl)c(Cl)c1=O | – | 15.7 | – | 34.9 | – | 29.9 | – | 32.5 | 18.3 | 35 | – | 32.3 | – | 6.61 | – | 30.8 | – | 13.1 | – | 9.68
CN1CCN(Cc2ccc(C(=O)Nc3cncc(C#Cc4cnc(N)c5ccccc45)c3)cc2C(F)(F)F)CC1 | 1.94 | 4.6 | 2.67 | 6.91 | 1.8 | 3.47 | 2.29 | 5.2 | 1.78 | 3.49 | 1.76 | 3.39 | 1.18 | 3.05 | 1.73 | 3.12 | 2.19 | 4.74 | 1.12 | 2.99
C#Cc1cnc(=O)n(C2CC(O)C(CO)O2)c1 (stereo not given) | > 100 | > 100 | > 100 | > 100 | > 100 | > 100 | > 100 | > 100 | > 100 | > 100 | > 78.5 | > 100 | > 100 | > 100 | > 100 | > 100 | > 100 | > 100 | > 100 | > 100
N#Cc1c(NC(=O)c2cccc(C(F)(F)F)c2)sc2c1CCC(=O)C2 | 0.337 | 1.66 | 1.14 | 3.97 | 0.851 | 4.05 | 2.3 | 6.35 | 3.3 | > 100 | 1.19 | – | 0.298 | 0.952 | 1.3 | 2.65 | 1.61 | 3.37 | 0.576 | 3.56
O=C(c1cccs1)c1c(C(F)(F)F)n([O-])c2ccccc2[n+]1=O | 0.432 | 1.1 | 1.04 | 2.49 | 0.737 | 1.67 | 2.21 | 10.5 | 0.695 | 1.34 | 0.234 | 0.597 | 0.941 | 3.09 | 0.686 | 1.33 | 0.663 | 1.3 | 0.25 | 0.966
COc1ccc(NC(=O)Nc2n[nH]c3ccccc23)cc1 | > 100 | > 100 | > 100 | > 100 | > 100 | > 100 | > 100 | > 100 | > 100 | > 100 | > 100 | > 100 | > 100 | > 100 | > 100 | > 100 | > 100 | > 100 | > 100 | > 100
NC(CO)Cc1cnc[nH]1 (stereo not given) | > 100 | > 100 | – | > 100 | > 100 | > 100 | > 100 | > 100 | – | > 100 | > 100 | > 100 | – | > 10 | > 100 | > 100 | > 100 | > 100 | > 100 | > 100
NC(N)=N/N=C(/c1ccccc1)c1ccc(F)cc1 | 0.4 | 13.4 | 1.03 | 18.7 | 0.817 | 22.2 | 0.429 | 11.3 | 0.33 | 4.15 | 0.342 | 10.8 | 1.01 | 37.7 | 0.316 | 4.66 | 0.416 | 2.09 | 3.67 | –
